# In patent publication US10174029B2, “Pyrimidine-2,4-diamine derivatives for treatment of cancer” (THOMAS HELLEDAYS STIFTELSE FOR MEDICINSK FORSKNING, priority 2012, dated 2019):
# Biological target: MTH1 (Homo sapiens, UniProt P36639)
# Test: MTH1 enzymatic assay and IC50 value determination (malachite green)
# Assay type: biochemical
# Settings: MTH1 4.8 nM, dGTP 100 μM, 15 minutes at 22° C.
# Experimental: MTH1 Enzymatic Assay and IC50 Value Determination
# MTH1 catalyzes the hydrolysis of dGTP to dGMP and PPi. By coupling the reaction to pyrophosphatase added in excess PPi is converted to Pi that can be detected by using the malachite green assay reagent. Briefly, for IC50 value determination the compound to be analyzed is diluted in assay buffer in a 1:3 dilution series generating 12 different compound concentrations giving a final DMSO concentration of 1% in the assay well. MTH1 diluted in assay buffer (100 mM Tris-acetate, 40 mM NaCl, 10 mM magnesium acetate, 1 mM DTT and 0.005% Tween 20) fortified with E. coli pyrophosphatase (0.8 U/ml) is added to a final concentration of 4.8 nM. dGTP diluted in assay buffer is added to a final concentration of 100 μM. The reaction mixture is incubated with shaking for 15 minutes at 22° C. To 100 μl reaction mixture is 25 μl Malachite green assay regent (0.095% Malachite green in 17% H2SO4, 1.5% Ammonium molybdate, 0.17% Tween 20) added followed by incubation with shaking for 15 minutes at 22° C.
# The absorbance of the assay plate is read at 630 nm using an EnVision Multilabel plate reader. The IC50 value is determined by fitting a dose response curve to the data points using nonlinear regression analysis and the equation Y=Bottom+(Top−Bottom)/(1+10^((Log IC50−X)*HillSlope)), where Y is the read absorbance at 630 nm and X is log [compound].
IC50 (group: between 2 μM and 10 μM),IC50 (group: less than 200 nM),SMILES
2000 to 10000 nM,–,"Cc1cccc(-c2cc(NC3CCCCC3NC(=O)OC(C)(C)C)nc(N)n2)c1C (mixture of isomers) [Example 372, tert-Butyl N-(2-{[2-amino-6-(2,3-dimethylphenyl)pyrimidin-4-yl]amino}cyclohexyl)-carbamate]"
–,< 200 nM,"CCCNc1cc(-c2ccccc2)nc(N)n1 [Example 4, 6-phenyl-4-N-propylpyrimidine-2,4-diamine]"
2000 to 10000 nM,–,"CCCNc1cc(-c2ccc(S(C)(=O)=O)cc2)nc(N)n1 [Example 5, 6-(4-methanesulfonylphenyl)-4-N-propylpyrimidine-2,4-diamine]"
–,< 200 nM,"Nc1nc(NCC2CC2)cc(-c2ccccc2)n1 [Example 6, 4-N-(cyclopropylmethyl)-6-phenylpyrimidine-2,4-diamine]"
–,< 200 nM,"Nc1nc(NCc2ccccc2)cc(-c2ccccc2)n1 [Example 11, 4-N-benzyl-6-phenylpyrimidine-2,4-diamine]"
2000 to 10000 nM,–,"Nc1nc(NCCN2CCOCC2)cc(-c2ccccc2)n1 [Example 12, 4-N-[2-(morpholin-4-yl)ethyl]-6-phenylpyrimidine-2,4-diamine]"
2000 to 10000 nM,–,"CC(C)(C)Nc1cc(-c2ccc(Cl)cc2)nc(N)n1 [Example 14, 4-N-tert-butyl-6-(4-chlorophenyl)pyrimidine-2,4-diamine]"
2000 to 10000 nM,–,"Nc1nc(NC2CCOCC2)cc(-c2ccc(Cl)cc2)n1 [Example 15, 6-(4-chlorophenyl)-4-N-(oxan-4-yl)pyrimidine-2,4-diamine]"
–,< 200 nM,"COc1ccc(-c2cc(NC3CC3)nc(N)n2)cc1 [Example 18, 4-N-cyclopropyl-6-(4-methoxyphenyl)pyrimidine-2,4-diamine]"
2000 to 10000 nM,–,"CC(C)(C)Nc1cc(-c2cccc(C(F)(F)F)c2)nc(N)n1 [Example 20, 4-N-tert-butyl-6-[3-(trifluoromethyl)phenyl]pyrimidine-2,4-diamine]"
2000 to 10000 nM,–,"Nc1nc(NC2CCOCC2)cc(-c2cccc(Cl)c2)n1 [Example 21, 6-(3-chlorophenyl)-4-N-(oxan-4-yl)pyrimidine-2,4-diamine]"
–,< 200 nM,"CNc1cc(-c2ccc3c(ccn3S(=O)(=O)c3ccccc3)c2)nc(N)n1 [Example 31, 6-[1-(benzenesulfonyl)-1H-indol-5-yl]-4-N-methylpyrimidine-2,4-diamine]"
–,< 200 nM,"CNc1cc(-c2ccccc2OC)nc(N)n1 [Example 32, 6-(2-methoxyphenyl)-4-N-methylpyrimidine-2,4-diamine]"
–,< 200 nM,"CNc1cc(-c2cncc3ccccc23)nc(N)n1 [Example 35, 6-(isoquinolin-4-yl)-4-N-methylpyrimidine-2,4-diamine]"
–,< 200 nM,"CNc1cc(-c2ccc(C(F)(F)F)cc2)nc(N)n1 [Example 36, 4-N-methyl-6-[4-(trifluoromethyl)phenyl]pyrimidine-2,4-diamine]"
–,< 200 nM,"CNc1cc(-c2cccc(C#N)c2)nc(N)n1 [Example 40, 3-[2-amino-6-(methylamino)pyrimidin-4-yl]benzonitrile]"
–,< 200 nM,"CNc1cc(-c2ccc(S(C)(=O)=O)cc2)nc(N)n1 [Example 43, 6-(4-methanesulfonylphenyl)-4-N-methylpyrimidine-2,4-diamine]"
–,< 200 nM,"CNc1cc(-c2cccc(C(=O)N3CCOCC3)c2)nc(N)n1 [Example 44, 4-N-methyl-6-[3-(morpholine-4-carbonyl)phenyl]pyrimidine-2,4-diamine]"
–,< 200 nM,"CNc1cc(-c2ccc(NS(C)(=O)=O)cc2)nc(N)n1 [Example 46, N-{4-[2-amino-6-(methylamino)pyrimidin-4-yl]phenyl}methanesulfonamide]"
–,< 200 nM,"CNc1cc(-c2ccc(C#N)cc2)nc(N)n1 [Example 51, 4-[2-amino-6-(methylamino)pyrimidin-4-yl]benzonitrile]"

IC50 (group: between 2 μM and 10 μM),IC50 (group: less than 200 nM),SMILES
–,< 200 nM,"CNc1cc(-c2cccc3ncccc23)nc(N)n1 [Example 52, 4-N-methyl-6-(quinolin-5-yl)pyrimidine-2,4-diamine]"
–,< 200 nM,"Nc1nc(NC2CCCC2)cc(-c2ccc(Cl)cc2)n1 [Example 55, 6-(4-chlorophenyl)-4-N-cyclopentylpyrimidine-2,4-diamine]"
–,< 200 nM,"COc1ccc(-c2cc(NC3CCCC3)nc(N)n2)cc1 [Example 56, 4-N-cyclopentyl-6-(4-methoxyphenyl)pyrimidine-2,4-diamine]"
–,< 200 nM,"Nc1nc(NC2CCCC2)cc(-c2cccc(C(F)(F)F)c2)n1 [Example 57, 4-N-cyclopentyl-6-[3-(trifluoromethyl)phenyl]pyrimidine-2,4-diamine]"
–,< 200 nM,"COc1ccc(-c2cc(NC3CCC3)nc(N)n2)cc1 [Example 59, 4-N-cyclobutyl-6-(4-methoxyphenyl)pyrimidine-2,4-diamine]"
–,< 200 nM,"Nc1nc(NC2CCC2)cc(-c2cccc(Cl)c2Cl)n1 [Example 64, 4-N-cyclobutyl-6-(2,3-dichlorophenyl)pyrimidine-2,4-diamine]"
–,< 200 nM,"Nc1nc(NC2CCCC2)cc(-c2cccc(Cl)c2Cl)n1 [Example 65, 4-N-cyclopentyl-6-(2,3-dichlorophenyl)pyrimidine-2,4-diamine]"
–,< 200 nM,"CCNc1cc(-c2cccc(Cl)c2Cl)nc(N)n1 [Example 66, 6-(2,3-dichlorophenyl)-4-N-ethylpyrimidine-2,4-diamine]"
–,< 200 nM,"Nc1nc(NC2CCOC2)cc(-c2cccc(Cl)c2Cl)n1 (stereo not drawn) [Example 67, 6-(2,3-dichlorophenyl)-4-N-(oxolan-3-yl)pyrimidine-2,4-diamine]"
–,< 200 nM,"CNc1cc(-c2cc(F)c(F)cc2F)nc(N)n1 [Example 72, 4-N-methyl-6-(2,4,5-trifluorophenyl)pyrimidine-2,4-diamine]"
–,< 200 nM,"CNc1cc(-c2ccc(F)cc2OC)nc(N)n1 [Example 73, 6-(4-fluoro-2-methoxyphenyl)-4-N-methylpyrimidine-2,4-diamine]"
–,< 200 nM,"CNc1cc(-c2cc(Cl)ccc2C)nc(N)n1 [Example 74, 6-(5-chloro-2-methylphenyl)-4-N-methylpyrimidine-2,4-diamine]"
–,< 200 nM,"CNc1cc(-c2ccccc2Cl)nc(N)n1 [Example 77, 6-(2-chlorophenyl)-4-N-methylpyrimidine-2,4-diamine]"
2000 to 10000 nM,–,"CNc1cc(-c2ccccn2)nc(N)n1 [Example 78, 4-N-methyl-6-(pyridin-2-yl)pyrimidine-2,4-diamine]"
–,< 200 nM,"CNc1cc(-c2ccc(OC)c(C)c2)nc(N)n1 [Example 79, 6-(4-methoxy-3-methylphenyl)-4-N-methylpyrimidine-2,4-diamine]"
–,< 200 nM,"CNc1cc(-c2ccc(F)c(Cl)c2)nc(N)n1 [Example 80, 6-(3-chloro-4-fluorophenyl)-4-N-methylpyrimidine-2,4-diamine]"
–,< 200 nM,"CNc1cc(-c2ccc(OC(F)(F)F)cc2)nc(N)n1 [Example 81, 4-N-methyl-6-[4-(trifluoromethoxy)phenyl]pyrimidine-2,4-diamine]"
–,< 200 nM,"CNc1cc(-c2cccc(C(F)(F)F)c2F)nc(N)n1 [Example 85, 6-[2-fluoro-3-(trifluoromethyl)phenyl]-4-N-methylpyrimidine-2,4-diamine]"
–,< 200 nM,"CNc1cc(-c2cccc(Cl)c2F)nc(N)n1 [Example 87, 6-(3-chloro-2-fluorophenyl)-4-N-methylpyrimidine-2,4-diamine]"
